{
  "source": "patent US20230172901A1",
  "about": "“COMPOSITIONS AND METHODS FOR THE PROPHYLAXIS AND TREATMENT OF FIBROTIC AND INFLAMMATORY CONDITIONS” (GRETALS AUSTRALIA PTY LTD, priority 2020, published 2023)",
  "key": {"[1]": {"test_system": "sheep model for pulmonary fibrosis, bleomycin-injured lung segments", "test": "Example 2: bronchoalveolar lavage (BAL) inflammatory cell counts", "assay_type": "in vivo", "from_the_text": "(§1) In this study, a total of 10 sheep were used. Fibrosis in two lung segments of each sheep in a similar manner as performed in Example 1 herein. Using this procedure (as detailed further below) the fibrosis was confined to small, isolated regions in the lungs leaving the remaining 90-95% of the healthy unaffected lungs to undertake normal respiratory function.\n(§2) All sheep (n=10) in the study were challenged with 2 single doses of bleomycin (3 units) per lung segment, a fortnight apart and the animals were kept for a little over 5 weeks after the final bleomycin dose. Bleomycin is a well-known agent for inducing fibrosis in the lungs. The administration procedure involves inserting a bronchoscope into lung segments in the right and left lung, and then slowly infusing the bleomycin into two segments as shown in FIG. 2 via the bronchoscope biopsy port.\n(§3) In the study detailed in Example 1 herein, the dose-rate of pinocembrin was 7 mg pinocembrin per sheep, per week.\n(§4) For control purposes the lung segment in the opposite lung was used as a bleomycin-positive, without drug, control, as indicated in FIG. 1. The bioactive molecules in vehicle, were delivered as 5 ml infusions through the biopsy port of the bronchoscope. Note that to nullify any small differences (e.g. physiological or anatomical etc.) between the left and right lungs, the infusions of pinocembrin were randomized between the left and right caudal lung segments. Half the animals (5 sheep) received pinocembrin to the right caudal lung segments, while the other 5 sheep received pinocembrin to the left caudal lung segments. The right medial lung segment was left untreated and used for healthy lung control tissue which was sampled at autopsy (FIG. 2).\nFor each of the bronchoalveolar (BAL) samplings at the timepoints listed in FIG. 1, the endoscope was manipulated into a specific lung-segment for sampling, usually passing through about 3-4 airway branches. For BAL sampling, 10 ml of sterile saline was infused through the biopsy port of the endoscope into the specific lung-segment and then recovered into a syringe through the same port. This procedure recovered between 3 and 5 ml of BAL fluid. The sampling method collects cells for analyses from the small airway and alveolar lumens of the specific lung-segment where the bronchoscope was navigated to. The BAL cells from each segment were centrifuged onto glass slides and stained for differential cell counting of inflammatory cells with Hem-Quik."}, "[2]": {"test_system": "sheep model for pulmonary fibrosis, bleomycin-injured lung segments", "test": "Example 2: histopathology scoring (H&E; inflammation, fibrosis, overall pathology)", "assay_type": "in vivo", "experimental": "Histopathology of lung parenchyma was assessed by an experienced pathologist blinded to the treatment groups using a semi-quantitative scoring system. Briefly, the criteria used gives score indices separately for both inflammation and fibrosis pathology, and these score indices added together give an ‘overall pathology score’.\nas §1, §2, §3, §4\nFollowing euthanasia, the lungs were removed, and targeted lung-segments identified and carefully dissected free from surrounding tissue. Individual segments were then inflated with a 1:1 mixture of Optimal Cutting Temperature Compound (OCT, ProSciTech Ltd Pty) and sterile PBS solution, under pressure of approximately 20 cm/H2O. Several serial transverse sections of the inflated segment were fixed in 10% neutral-buffered formalin and processed in paraffin for histopathological assessment. Remaining lung slices were embedded in OCT and frozen in cryo-moulds on aluminium boats floating on liquid nitrogen for immunochemistry analyses.\nParaffin-embedded tissue sections (5 μm) were stained with haematoxylin and eosin Y (H&E) for general histology and with Masson's trichrome staining to identify changes to collagen content within the lung parenchyma.\nHistopathology of the lung parenchyma was assessed using a semi-quantitative scoring system as outline in Example 1 herein. […] For each H&E stained section, 10 consecutive, non-overlapping fields at ×20 magnification were graded based on the scoring criteria for fibrosis, inflammation and overall pathology scores as outlined in Example 1 herein. The areas were selected away from large airways and major blood vessels. Scores from all ten fields were then averaged to give representative scores for the parameters assessed in the sectioned lung segment."}, "[3]": {"test_system": "sheep model for pulmonary fibrosis, bleomycin-injured lung segments", "test": "Example 2: hydroxyproline assay for collagen content", "assay_type": "in vivo", "conditions": "increase induced by bleomycin", "from_the_text": "as §1\nAll sheep (n=10) in the study were challenged with 2 single doses of bleomycin (3 units) per lung segment, a fortnight apart and the animals were kept for a little over 5 weeks after the final bleomycin dose. Bleomycin is a well-known agent for inducing fibrosis in the lungs. The administration procedure involves inserting a bronchoscope into lung segments in the right and left lung, and then slowly infusing the bleomycin into two segments as shown in FIG. 2 via the bronchoscope biopsy port. […]\nThe hydroxyproline assay was used to extrapolate the collagen content and concentration of each segment. Briefly, frozen lung tissues from each segment were lyophilized to dry weight, hydrolyzed in 6M HCl, and assessed for hydroxyproline content by measuring the absorbance of reconstituted samples (in 0.1M HCl) at 558 nm using a Beckman DU-64 spectrophotometer (Beckman Coulter Inc, Brea, Calif.). Hydroxyproline content was determined from a standard curve of trans-L-hydroxy-L-proline (Sigma-Aldrich).). […]"}, "[4]": {"test_system": "sheep model for pulmonary fibrosis, bleomycin-injured lung segments", "test": "Example 2: Masson's trichrome assay of connective tissue content", "assay_type": "in vivo", "from_the_text": "as §1\nAll sheep (n=10) in the study were challenged with 2 single doses of bleomycin (3 units) per lung segment, a fortnight apart and the animals were kept for a little over 5 weeks after the final bleomycin dose. Bleomycin is a well-known agent for inducing fibrosis in the lungs. […]\nThe degree of fibrosis was quantified by assessing the changes in overall connective tissue content within the parenchymal tissue using methods known to the skilled person. […] The images were then analysed using Image-Pro® Plus (Version 6.3 for Windows, Media Cybernetics, Bethesda, Md., USA) using the ‘colour selector’ tool to measure the area of blue-stained tissues (collagen and other connective tissues) within each field of view. […] The fraction of blue stained tissue area was expressed as a percentage per total field area (percentage of blue stained tissue area per total field area). […]"}, "[5]": {"test_system": "sheep model for pulmonary fibrosis", "test": "Example 2: overall conclusion on efficacy in sheep model of pulmonary fibrosis", "assay_type": "in vivo", "from_the_text": "as §1, §2, §3\nFor control purposes the lung segment in the opposite lung was used as a bleomycin-positive, without drug, control, as indicated in FIG. 1. The bioactive molecules in vehicle, were delivered as 5 ml infusions through the biopsy port of the bronchoscope. […]"}, "[6]": {"conditions": "soxhlet extraction of dry leaves with n-hexane or methanol; cited from earlier work"}, "[7]": {"conditions": "week 12, vs bleomycin alone without pinocembrin, 4 weekly infusions of 7 mg, n=10 sheep"}, "[8]": {"conditions": "individual sheep data, 10 sheep"}, "[9]": {"conditions": "vs segments which received bleomycin infusion only, 4 weekly treatments of 7 mg, n=10 sheep"}},
  "note": "Entries after “also recorded” stand apart in the source; their conditions may differ.",
  "data": [
    {"smiles": "O=C1CC(c2ccccc2)Oc2cc(O)cc(O)c21", "note": "(stereo not drawn) [pinocembrin, 5,7-Dihydroxy-2-Phenyl-2,3-Dihydro-4H-Chromen-4-One]", "values": [
      {"measurement": "sheep with lower inflammatory cell numbers in BAL fluid", "setting": "[1]; individual sheep data, vs bleomycin without pinocembrin, 10 sheep", "value": "Nine out of ten"},
      {"measurement": "neutrophil, % of total BAL cells", "setting": "[1]; pinocembrin-treated bleomycin-injured lung segments (7.4% in bleomycin without drug)", "value": 3.7, "unit": "%"},
      {"measurement": "numbers of inflammatory cells (neutrophils, eosinophils and lymphocytes) in BAL fluid", "setting": "[1]; [7]", "value": "significantly lower; also recorded: significantly reduces"},
      {"measurement": "numbers of neutrophils in BAL fluid", "setting": "[1]; [7]", "value": "significantly lower"},
      {"measurement": "sheep having improved fibrosis scores", "setting": "[2]; [8]", "value": "eight out of ten"},
      {"measurement": "sheep having improved inflammation scores", "setting": "[2]; [8]", "value": "nine out of ten"},
      {"measurement": "sheep having improved overall pathology scores", "setting": "[2]; [8]", "value": "Nine out of ten"},
      {"measurement": "fibrosis score (histopathology), difference", "setting": "[2]; lower than segments which received bleomycin infusion only, 4 weekly treatments of 7 mg, n=10 sheep", "value": "not statistically significant"},
      {"measurement": "pathology scores (all three parameters) compared with untreated control lung segments", "setting": "[2]; pinocembrin-treated bleomycin segments vs untreated control segments, n=10 sheep", "value": "significantly higher"},
      {"measurement": "inflammation score (histopathology)", "setting": "[2]; [9]", "value": "significantly lower; also recorded: significantly improved"},
      {"measurement": "overall pathology score (histopathology)", "setting": "[2]; [9]", "value": "significantly lower; also recorded: significantly improved"},
      {"measurement": "collagen content (hydroxyproline assay)", "setting": "[3]; 4 weekly treatments of 7 mg, 10 sheep (FIG. 16A)", "value": "did not reduce; also recorded: not associated with a significant decrease; also recorded: did not address the increase"},
      {"measurement": "collagen content (hydroxyproline assay)", "setting": "[3]; all 13 sheep of Examples 1 and 2 (FIG. 16B)", "value": "does not reduce"},
      {"measurement": "sheep with decreased percentage blue values", "setting": "[4]; individual sheep data, vs bleomycin injury without pinocembrin, 10 sheep", "value": "nine out of ten"},
      {"measurement": "percentage blue staining, Masson's Trichrome stained connective tissue", "setting": "[4]; vs bleomycin-infused lung without pinocembrin, 4 weekly treatments of 7 mg, n=10 sheep", "value": "significantly reduces; also recorded: significant decrease; also recorded: significantly lower"},
      {"measurement": "anti-inflammatory properties (overall)", "setting": "[5]; from BAL cell and parenchymal T cell data", "value": "strong anti-inflammatory properties"},
      {"measurement": "anti-fibrotic effect (overall)", "setting": "[5]; from fibrosis scores, Masson's trichrome and hydroxy proline assays", "value": "modest anti-fibrotic effect"},
      {"measurement": "temperature survived for extended periods", "setting": "[6]", "value": "up to 68 °C"}
    ]}
  ]
}
